Experimental data taken from PubChem BioAssay AID256 (DTP/NCI, 2004).
Where “and” joins values, the source holds several entries; their conditions need not be identical. Equal entries are not always repeated. Inconclusive results and toxic doses are left out.

Test system: CD2F1 mice, L1210 leukemia ip, survival T/C
Experiment: NCI In Vivo Anticancer Drug Screen. Data for tumor model L1210 Leukemia (intraperitoneal) in CD2F1 (CDF1) mice
Settings: higher = longer survival
Summary of the method: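 Compound-dosed mice with transplantable tumor versus matched vehicle controls; endpoint ratio T/C reported.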

[1] = endpoint: mean survival time, dose: 100.0 mg/kg/injection, schedule: Q04DX002 (ip), vehicle: saline
[2] = endpoint: mean survival time, dose: 200.0 mg/kg/injection, schedule: Q04DX002 (ip), vehicle: saline
[3] = endpoint: mean survival time, dose: 100.0 mg/kg/injection, schedule: Q01DX009 (ip), vehicle: saline with Tween-80
[4] = endpoint: mean survival time, dose: 100.0 mg/kg/injection, schedule: Q04DX003 (ip), vehicle: saline with Tween-80
[5] = endpoint: mean survival time, dose: 200.0 mg/kg/injection, schedule: Q01DX009 (ip), vehicle: saline with Tween-80
[6] = endpoint: mean survival time, dose: 200.0 mg/kg/injection, schedule: Q04DX003 (ip), vehicle: saline with Tween-80
[7] = endpoint: mean survival time, dose: 400.0 mg/kg/injection, schedule: Q01DX009 (ip), vehicle: saline with Tween-80
[8] = endpoint: mean survival time, dose: 400.0 mg/kg/injection, schedule: Q04DX003 (ip), vehicle: saline with Tween-80
[9] = endpoint: mean survival time, dose: 6.0 mg/kg/injection, schedule: Q01DX009 (ip), vehicle: saline with Tween-80
[10] = endpoint: mean survival time, dose: 100.0 mg/kg/injection, schedule: Q01DX001 (ip), vehicle: saline
[11] = endpoint: mean survival time, dose: 200.0 mg/kg/injection, schedule: Q01DX001 (ip), vehicle: saline
[12] = endpoint: mean survival time, dose: 400.0 mg/kg/injection, schedule: Q01DX001 (ip), vehicle: saline
[13] = endpoint: mean survival time, dose: 50.0 mg/kg/injection, schedule: Q01DX009 (ip), vehicle: saline with Tween-80
[14] = endpoint: mean survival time, dose: 50.0 mg/kg/injection, schedule: Q04DX003 (ip), vehicle: saline with Tween-80

`CN(C)CCCN=C(N)CSP(=O)(O)O` was tested, and the T/C [1] was 102 % of control and the T/C [2] was 109 % of control.

With `NNC(=O)c1ccc(C(=O)NN)cc1` the T/C (endpoint: mean survival time, dose: 100.0 mg/kg/injection, schedule: Q01DX001 (ip), vehicle: Klucel (hydroxypropylcellulose) (HPC)) was 91 % of control, the T/C [3] was 97 % of control and the T/C [4] was 94 % of control. For the same compound, the T/C (endpoint: mean survival time, dose: 200.0 mg/kg/injection, schedule: Q01DX001 (ip), vehicle: Klucel (hydroxypropylcellulose) (HPC)) was 100 % of control, the T/C [5] was 107 % of control and the T/C [6] was 96 % of control. The T/C (endpoint: mean survival time, dose: 400.0 mg/kg/injection, schedule: Q01DX001 (ip), vehicle: Klucel (hydroxypropylcellulose) (HPC)) was 88 % of control, the T/C [7] was 104 % of control and the T/C [8] was 96 % of control.

In the case of `COc1ccc2c(c1)CCC(c1ccccc1)=C2c1ccc(OCCN2CCCC2)cc1`, the T/C [9] is reported as 103 % of control, the T/C (endpoint: mean survival time, dose: 12.0 mg/kg/injection, schedule: Q01DX009 (ip), vehicle: saline with Tween-80) is reported as 106 % of control and the T/C (endpoint: mean survival time, dose: 24.0 mg/kg/injection, schedule: Q01DX009 (ip), vehicle: saline with Tween-80) is reported as 101 % of control. For the same compound, the T/C (endpoint: mean survival time, dose: 40.0 mg/kg/injection, schedule: Q04DX003 (ip), vehicle: saline with Tween-80) was 104 % of control and the T/C (endpoint: mean survival time, dose: 80.0 mg/kg/injection, schedule: Q04DX003 (ip), vehicle: saline with Tween-80) was 101 % of control.

`ICC1CCC(CI)CC1` (centres undefined) was tested, and the T/C [10] was 98 % of control, the T/C [11] was 96 % of control and the T/C [12] was 93 % of control.

In the case of `CN1CCc2[nH]c3ccccc3c2C1`, the T/C (endpoint: mean survival time, dose: 75.0 mg/kg/injection, schedule: Q01DX001 (ip), vehicle: other) is reported as 93 % of control, the T/C (endpoint: mean survival time, dose: 100.0 mg/kg/injection, schedule: Q04DX002 (ip), vehicle: Klucel (hydroxypropylcellulose) (HPC)) is reported as 95 % of control and the T/C (endpoint: mean survival time, dose: 150.0 mg/kg/injection, schedule: Q01DX001 (ip), vehicle: other) is reported as 93 % of control. For the same compound, the T/C (endpoint: mean survival time, dose: 200.0 mg/kg/injection, schedule: Q04DX002 (ip), vehicle: Klucel (hydroxypropylcellulose) (HPC)) was 103 % of control.

For `O=C(NCCc1nc(-c2nc(C(=O)O)cs2)cs1)c1ccccc1`, the T/C [3] was 96 % of control, the T/C [5] was 96 % of control and the T/C [7] was 96 % of control.

For `O=C(O)/C=C\C(=O)OCc1ccc(Cl)cc1Cl`, the T/C [3] was 106 % of control, the T/C [4] was 91 % of control and the T/C [6] was 101 % of control. The T/C [8] was 95 % of control.

With `COC(=O)c1cc(NC(=O)Nc2cc([N+](=O)[O-])ccc2Cl)cc(C(=O)OC)c1` the T/C (endpoint: mean survival time, dose: 50.0 mg/kg/injection, schedule: Q01DX001 (ip), vehicle: saline) was 92 % of control, the T/C [10] was 86 % of control and 94 % of control and the T/C [3] was 89 % of control and 95 % of control. The T/C [1] was 96 % of control, the T/C (endpoint: mean survival time, dose: 100.0 mg/kg/injection, schedule: Q04DX003 (ip), vehicle: saline) was 95 % of control and the T/C [11] was 89 % of control. For the same compound, the T/C [5] was 95 % of control and 102 % of control, the T/C [2] was 93 % of control and 107 % of control and the T/C (endpoint: mean survival time, dose: 200.0 mg/kg/injection, schedule: Q04DX003 (ip), vehicle: saline) was 102 % of control. The T/C [12] was 88 % of control, the T/C [7] was 102 % of control and 103 % of control and the T/C (endpoint: mean survival time, dose: 400.0 mg/kg/injection, schedule: Q04DX002 (ip), vehicle: saline) was 91 % of control and 96 % of control. The T/C (endpoint: mean survival time, dose: 400.0 mg/kg/injection, schedule: Q04DX003 (ip), vehicle: saline) was 96 % of control.

`CCOC(=O)N1CCN(c2ccc(Cl)cc2)CC1` was tested, and the T/C (endpoint: mean survival time, dose: 100.0 mg/kg/injection, schedule: Q04DX003 (ip), vehicle: Klucel (hydroxypropylcellulose) (HPC)) was 93 % of control and the T/C (endpoint: mean survival time, dose: 200.0 mg/kg/injection, schedule: Q04DX003 (ip), vehicle: Klucel (hydroxypropylcellulose) (HPC)) was 91 % of control.

In the case of `O=C1CC[C@@H]2CCCC[C@@H]2C1`, the T/C (endpoint: mean survival time, dose: 12.5 mg/kg/injection, schedule: Q01DX009 (ip), vehicle: saline with Tween-80) is reported as 96 % of control, the T/C (endpoint: mean survival time, dose: 25.0 mg/kg/injection, schedule: Q01DX009 (ip), vehicle: saline with Tween-80) is reported as 92 % of control and the T/C [13] is reported as 98 % of control. For the same compound, the T/C [14] was 98 % of control.

With `O=C1N(CC2CO2)CCN1CC1CO1` (centres undefined) the T/C (endpoint: median survival time, dose: 12.5 mg/kg/injection, schedule: Q01DX009 (ip), vehicle: saline) was 123 % of control, the T/C (endpoint: median survival time, dose: 50.0 mg/kg/injection, schedule: Q01DX009 (ip), vehicle: saline) was 157 % of control and the T/C (endpoint: median survival time, dose: 100.0 mg/kg/injection, schedule: Q01DX009 (ip), vehicle: saline) was 174 % of control. The T/C (endpoint: median survival time, dose: 200.0 mg/kg/injection, schedule: Q01DX009 (ip), vehicle: saline) was 277 % of control and the T/C (endpoint: median survival time, dose: 400.0 mg/kg/injection, schedule: Q01DX009 (ip), vehicle: saline) was 86 % of control.

With `CCCC(O)(CC)C1CCCC1C` (centres undefined) the T/C [13] was 100 % of control, the T/C [3] was 95 % of control and the T/C [5] was 100 % of control.

For `CC(C)(C)[N+](Cc1ccccc1)(Cc1ccccc1)Cc1ccccc1`, the T/C [3] was 104 % of control, the T/C [5] was 96 % of control and the T/C [7] was 98 % of control.

`CCCCOC(=O)C(C)(C)O` was tested, and the T/C [4] was 96 % of control, the T/C [6] was 102 % of control and the T/C [8] was 98 % of control.

`CCOC(=O)c1c(Cl)nc2ccccc2c1Cl` was tested, and the T/C [13] was 105 % of control, the T/C [3] was 105 % of control and the T/C [5] was 94 % of control.

`COc1ccc(COC(=O)Nc2ccccc2[N+](=O)[O-])cc1` was tested, and the T/C (endpoint: mean survival time, dose: 100.0 mg/kg/injection, schedule: Q04DX002 (ip), vehicle: saline with Tween-80) was 91 % of control, the T/C (endpoint: mean survival time, dose: 200.0 mg/kg/injection, schedule: Q04DX002 (ip), vehicle: saline with Tween-80) was 87 % of control and the T/C (endpoint: mean survival time, dose: 400.0 mg/kg/injection, schedule: Q04DX002 (ip), vehicle: saline with Tween-80) was 91 % of control.

In the case of `CC1=C2CC3C(CC2(C)C(=O)C=C1)OC(=O)C3C` (centres undefined), the T/C [4] is reported as 93 % of control, the T/C [6] is reported as 89 % of control and the T/C [8] is reported as 98 % of control.

In the case of `CCC(C)CC(O)CC1=CCCCC1` (centres undefined), the T/C [4] is reported as 91 % of control, the T/C [6] is reported as 95 % of control and the T/C [8] is reported as 106 % of control.

With `O=C(CNC(=O)NCc1ccco1)N/N=C/c1cccc([N+](=O)[O-])c1` the T/C [13] was 92 % of control, the T/C [3] was 88 % of control and the T/C [5] was 103 % of control.

In the case of `COC(=O)[C@H]1[C@H]2C[C@@H]3c4[nH]c5cc(OC)ccc5c4CCN3C[C@H]2C[C@@H](OC(=O)c2cc(OC)c(OC)c(OC)c2)[C@@H]1OC`, the T/C (endpoint: mean survival time, dose: 3.0 mg/kg/injection, schedule: Q01DX009 (ip), vehicle: saline with Tween-80) is reported as 95 % of control, the T/C [9] is reported as 94 % of control and the T/C (endpoint: mean survival time, dose: 12.5 mg/kg/injection, schedule: Q04DX003 (ip), vehicle: saline with Tween-80) is reported as 90 % of control. For the same compound, the T/C [14] was 89 % of control.

`O=C(Nc1ccc(Oc2ccccc2)cc1)c1ccc(C(=O)Nc2ccc(Oc3ccccc3)cc2)cc1` was tested, and the T/C [10] was 92 % of control, the T/C [11] was 92 % of control and the T/C [12] was 95 % of control.

In the case of `CCCCCCCCCCCCSC1=CC(=O)C(OC)=C(OC)C1=O`, the T/C (endpoint: mean survival time, dose: 0.78 mg/kg/injection, schedule: Q01DX009 (ip), vehicle: other) is reported as 95 % of control, the T/C (endpoint: mean survival time, dose: 1.56 mg/kg/injection, schedule: Q01DX009 (ip), vehicle: other) is reported as 95 % of control and the T/C (endpoint: mean survival time, dose: 3.13 mg/kg/injection, schedule: Q01DX009 (ip), vehicle: other) is reported as 97 % of control. For the same compound, the T/C (endpoint: mean survival time, dose: 6.25 mg/kg/injection, schedule: Q01DX009 (ip), vehicle: other) was 97 % of control, the T/C (endpoint: mean survival time, dose: 12.5 mg/kg/injection, schedule: Q01DX009 (ip), vehicle: other) was 95 % of control and the T/C (endpoint: mean survival time, dose: 25.0 mg/kg/injection, schedule: Q01DX009 (ip), vehicle: other) was 94 % of control.

In the case of `Cc1oc(N)c(C(N)=O)c1C`, the T/C (endpoint: mean survival time, dose: 100.0 mg/kg/injection, schedule: Q01DX009 (ip), vehicle: saline sonified) is reported as 103 % of control, the T/C [4] is reported as 100 % of control and the T/C (endpoint: mean survival time, dose: 200.0 mg/kg/injection, schedule: Q01DX009 (ip), vehicle: saline sonified) is reported as 93 % of control. For the same compound, the T/C [6] was 100 % of control, the T/C (endpoint: mean survival time, dose: 400.0 mg/kg/injection, schedule: Q01DX009 (ip), vehicle: saline sonified) was 92 % of control and the T/C [8] was 94 % of control.

With `CSC(=NC#N)SC` the T/C (endpoint: mean survival time, dose: 3.13 mg/kg/injection, schedule: Q01DX001 (ip), vehicle: Klucel (hydroxypropylcellulose) (HPC)) was 101 % of control and the T/C (endpoint: mean survival time, dose: 6.25 mg/kg/injection, schedule: Q01DX001 (ip), vehicle: Klucel (hydroxypropylcellulose) (HPC)) was 104 % of control.
